{"source": "paper PMC10102062", "about": "“Effects of DPTQ, a novel positive allosteric modulator of the dopamine D1 receptor, on spontaneous eye blink rate and spatial working memory in the nonhuman primate” (Psychopharmacology, 2023)", "system": "rhesus monkey", "test": "Spatial delayed response working memory task", "assay_type": "in vivo, rhesus and one stumptail macaque", "conditions": "for Delay-dependent errors: 0.1 mg/kg; for Delay-dependent errors at short delays: 1.0 mg/kg", "protocol": "Sixteen rhesus and one stumptail macaque participated in the study (details provided below) that was performed at Yale University, New Haven CT, USA. Animals were used and cared for in full accordance with Yale University’s IACUC guidelines and polices in addition to all U.S. Federal policies and regulations. The monkeys were fed their normal diet each day, including appropriately nutritional biscuits and multiple fruits and vegetables for enrichment. Testing and any training occurred just before their main food course. This food consisted of biscuits, delivered each day, and all animals had full 24-h access to ad libitum water. Participation in cognitive testing was ensured by the enrichment of the environmental stimulation and the provision of the animals’ favorite food treats as rewards in the task, including yoghurt, raisins, almonds, grapes, fruit loops, and multiple other food items (Roberts et al [2010]).\nThe circuitry involved in this response is almost exclusively “dorsal stream” involving dorsolateral prefrontal cortex, particularly Area 46, and the lateral intraparietal sulcus (Goldman-Rakic [1996]). For a full description of the task used here, see Roberts et al. ([2010]). Animals were tested in a sound-attenuated room incorporating a testing chamber. In this task one of several well locations is baited with food in view of the animal and the wells are then covered with identical plaques. An opaque shutter is then lowered for one of 5 variable delays and then raised to allow the animal to make a response to one of the well locations to retrieve the food. Each delay length was repeated 4 times in a semirandom distribution across the 20 trials in each testing session. Each animal was stabilized prior to commencing any administration by gradually incrementing the number of wells (starting at just 2) and the lengths of the delay. The 5 variable delay lengths were set at 0, 1, 2, 3, and 4 s multiplied by a factor “N.” Thus, N was incremented by 1 up to a maximum of 10 until the subject performed at 80% or more across 3 consecutive test sessions whereupon the number of wells was incremented by 1. This process was repeated for each individual until they reached stable performance (65–75% ± ≤ 2.5% correct). This normalized level of performance allows for the sensitive detection of any impairment or improvement produced by experimental conditions. For baseline data for this study, we took 7 or more consecutive data points that had been collected in previous weeks which fell within the stable limits for the test. For the total group of 17 animals participating in this study, the median well number was 4 (range 2–7) and the median N value was 3 (range 1–7). Animals were typically tested 2 to 3 days a week.\nDPTQ (free base, Eli Lilly & Co.) was prepared as described above for the spontaneous eye blink test. Animals (4 males and 6 females, mean age = 22.1 ± 1.7 years) were originally assigned to receive either vehicle or DPTQ 2.5 mg/kg IM in a semi-random design. One animal received vehicle but was not dosed with DPTQ. This same group of animals was later used in a repeated dosing study with DPTQ 2.5 mg/kg vs vehicle. After a protracted washout period of several months we tested the lower doses of 0.1 mg/kg and 1.0 mg/kg in ascending order. This group of 10 animals included 3 from the previous study (3 males, 7 females (including one aged stumptail macaque); average age = 22.6 ± 1.7 years). The youngest animal in this study was aged 17.3 years. None of the animals were naïve and had all been used in previous studies with other compounds. They were given an extensive washout of weeks or months prior to this study and were established to have normal baseline performance on the task. During the study, animals were washed out based on known PK properties (half-life) of this drug as well as the baseline performance of each individual animal. […]", "data": [{"smiles": "C[C@H]1c2cccc(CC(C)(C)O)c2C[C@H](CO)N1C(=O)Cc1c(Cl)cccc1Cl", "note": "[DPTQ]", "values": [{"measurement": "Working memory performance over 2 weeks", "setting": "0.1 mg/kg IM, n = 10, no diminution on day 3, p = 0.014", "result": "modest enhancement of working memory"}, {"measurement": "Delay-dependent errors", "setting": "day 1, short (0, 1) N and long (3, 4) N delays", "result": "slight increase in errors"}, {"measurement": "Delay-dependent errors", "setting": "day 5, particularly long delays", "result": "small but non-significant decrease in errors"}, {"measurement": "Working memory performance over 2 weeks", "setting": "1.0 mg/kg IM, n = 8, p = 0.006, strongest day 4 p < 0.0001", "result": "significant improvement in working memory"}, {"measurement": "Delay-dependent errors at short delays", "setting": "day 1", "result": "no reduction in errors"}, {"measurement": "Delay-dependent errors at short delays", "setting": "day 5", "result": "reduction"}, {"measurement": "Working memory performance day 3", "setting": "2.5 mg/kg IM on days 1 and 5, n = 6", "result": "non-significant dip"}, {"measurement": "Working memory performance day 6", "setting": "2.5 mg/kg IM on days 1 and 5, day after repeat dose", "result": "reduction in performance to baseline"}, {"measurement": "Working memory performance days 8-14", "setting": "2.5 mg/kg IM on days 1 and 5, days 8, 12 p < 0.05, days 10, 14 p < 0.01", "result": "enhancement"}, {"measurement": "Working memory performance days 4 and 5", "setting": "2.5 mg/kg IM on days 1 and 5, p < 0.01", "result": "rebound enhancement"}, {"measurement": "Working memory performance, acute effect", "setting": "2.5 mg/kg IM single dose, day 1, 1 h post injection, n = 9", "result": "No immediate acute effect"}, {"measurement": "Diminution of performance", "setting": "2.5 mg/kg IM single dose, day 2", "result": 10, "unit": "%"}, {"measurement": "Mean performance score", "setting": "2.5 mg/kg IM single dose, day 3, p = 0.025 vs baseline, baseline 65–75% correct", "result": 61.1}, {"measurement": "Mean performance score", "setting": "2.5 mg/kg IM single dose, day 4, improvement days 4, 5, 6 p < 0.01", "result": 84.3}, {"measurement": "Working memory deficit on day 3", "setting": "2.5 mg/kg day 1, vehicle day 5, n = 10, p = 0.278 vs baseline", "result": "small and did not achieve significance"}, {"measurement": "Working memory performance days 4-12", "setting": "2.5 mg/kg day 1, vehicle day 5, days 4, 8 p < 0.001, day 5 p < 0.0001, days 10, 12 p < 0.05", "result": "enhancement"}, {"measurement": "Dose range over which procognitive effects were observed", "setting": "0.1 to 2.5 mg/kg IM", "result": "at least 25 fold"}, {"measurement": "Acute effect on spatial working memory", "setting": "1 h after injection, regardless of the dose administered", "result": "entirely null acute effect"}, {"measurement": "Score on day 3 at 0.1 and 1.0 mg/kg compared with 2.5 mg/kg", "setting": "day 3, p < 0.01, p < 0.05 respectively", "result": "significantly higher score"}, {"measurement": "Score on day 4 at 2.5 mg/kg compared with 0.1 mg/kg", "setting": "day 4", "result": "significantly greater"}, {"measurement": "Difference in scores attributable to dose", "setting": "day 5, 0.1, 1.0, 2.5 mg/kg", "result": "No difference"}]}]}
